#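 Exposure lasted 48 hours, with cells grown in 96-well plates and compounds tested at five concentrations. The concentration for 50% growth inhibition is given as GI50.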 Active and inactive are the calls of the source. No stated cut-off is given here; in the data, active = GI50 up to about 1.1 µM and inactive = higher.
# Legend:
# Test in all cases: NCI tumour cell line growth inhibition, 48 h
# KM12 = test system: KM12
# NCI-H23 = test system: NCI-H23
# MDA-MB-231 = test system: MDA-MB-231
# RXF 393 = test system: RXF 393
# SNB-19 = test system: SNB-19
# OVCAR-5 = test system: OVCAR-5
# COLO 205 = test system: COLO 205
# TK-10 = test system: TK-10
# PC-3 = test system: PC-3
# MCF7 = test system: MCF7
# HCT-15 = test system: HCT-15
# NCI-H226 = test system: NCI-H226
# CCRF-CEM = test system: CCRF-CEM
# EKVX = test system: EKVX
# DU-145 = test system: DU-145
# SN12C = test system: SN12C
# NCI/ADR-RES = test system: NCI/ADR-RES
# OVCAR-8 = test system: OVCAR-8
# U-251 = test system: U-251
SMILES,GI50 (KM12),GI50 (NCI-H23),GI50 (MDA-MB-231),GI50 (RXF 393),GI50 (SNB-19),GI50 (OVCAR-5),GI50 (COLO 205),GI50 (TK-10),GI50 (PC-3),GI50 (MCF7),GI50 (HCT-15) [µM],GI50 (NCI-H226),GI50 (CCRF-CEM),GI50 (EKVX),GI50 (DU-145),GI50 (SN12C),GI50 (NCI/ADR-RES),GI50 (OVCAR-8),GI50 (U-251)
Cc1c(C#N)c2nnn(-c3ccccc3)c(=O)n2c1-c1ccccc1,0.839 µM (active),5.43 µM (inactive),12.3 µM (inactive),2.48 µM (inactive),3.31 µM (inactive),1.89 µM (inactive),0.49 µM (active),> 59.6 µM (inactive),1.43 µM (inactive),2.39 µM (inactive),1.85,2.84 µM (inactive),2.24 µM (inactive),2.61 µM (inactive),1.73 µM (inactive),4.65 µM (inactive),1.12 µM (active),7.19 µM (inactive),
CC(C)CCCC(C)[C@H]1CC[C@H]2NCCCC[C@]12C (some centres undefined),2.68 µM (inactive),8.69 µM (inactive),2.92 µM (inactive),2.14 µM (inactive),5.36 µM (inactive),2.53 µM (inactive),1.73 µM (inactive),4.28 µM (inactive),3.07 µM (inactive),2 µM (inactive),2.43,9.14 µM (inactive),1.37 µM (inactive),2.28 µM (inactive),5.56 µM (inactive),6.24 µM (inactive),6.71 µM (inactive),3.03 µM (inactive),2.4 µM (inactive)
COc1ccc(CC2NC(=O)/C=C/CC(C(C)C3OC3c3ccccc3)OC(=O)C(CC(C)C)OC(=O)C(C)CNC2=O)cc1Cl (centres undefined),< 1e-05 µM (active),2.07e-05 µM (active),1.47e-05 µM (active),< 1e-05 µM (active),,,< 1e-05 µM (active),,1.04e-05 µM (active),1.34e-05 µM (active),1.06e-05,2.4e-05 µM (active),< 1e-05 µM (active),,1.21e-05 µM (active),2.38e-05 µM (active),4.81e-05 µM (active),2.32e-05 µM (active),2.56e-05 µM (active)
O=C(Nc1cc(Cl)c(I)c(Cl)c1)C(F)(F)F,27.5 µM (inactive),26.2 µM (inactive),30.1 µM (inactive),16.7 µM (inactive),35.9 µM (inactive),22.8 µM (inactive),21.5 µM (inactive),,31.1 µM (inactive),38.4 µM (inactive),18,23.1 µM (inactive),24.8 µM (inactive),18.3 µM (inactive),42 µM (inactive),35.5 µM (inactive),34.8 µM (inactive),20.1 µM (inactive),40.4 µM (inactive)
COC(=O)C(CCSC)NC(=O)CNC(=O)CSc1nnc(COc2ccc(Cl)cc2)n1-c1ccccc1 (centres undefined),20.2 µM (inactive),16.6 µM (inactive),16 µM (inactive),18.6 µM (inactive),69.3 µM (inactive),19 µM (inactive),18.2 µM (inactive),17.6 µM (inactive),16.6 µM (inactive),17.9 µM (inactive),18.3,18.8 µM (inactive),7.83 µM (inactive),,23 µM (inactive),18.4 µM (inactive),82.2 µM (inactive),,17.3 µM (inactive)
COc1cc2c(c(O)c1OC)C(=O)C1CCC(=O)N1C2c1cccc2ccccc12 (centres undefined),42.3 µM (inactive),89.7 µM (inactive),23.8 µM (inactive),21.4 µM (inactive),41.9 µM (inactive),94.4 µM (inactive),15.4 µM (inactive),,25.2 µM (inactive),32.5 µM (inactive),41.3,> 100 µM (inactive),18.5 µM (inactive),37.5 µM (inactive),> 100 µM (inactive),77.4 µM (inactive),41.2 µM (inactive),49.1 µM (inactive),37.4 µM (inactive)
N#CC1=C(S)N(C2OC(CO)C(O)C(O)C2O)C(c2ccccc2)=CC1c1ccccc1 (centres undefined),66.1 µM (inactive),> 100 µM (inactive),64.3 µM (inactive),25.2 µM (inactive),64.6 µM (inactive),> 100 µM (inactive),44.2 µM (inactive),> 100 µM (inactive),30.7 µM (inactive),43.1 µM (inactive),18.8,36.2 µM (inactive),37.2 µM (inactive),,> 100 µM (inactive),72.4 µM (inactive),> 100 µM (inactive),45.3 µM (inactive),43 µM (inactive)
CN(C)c1ccc(-c2nc(-c3cc4c(ccc5ccccc54)oc3=O)cs2)cc1,> 100 µM (inactive),,> 100 µM (inactive),> 100 µM (inactive),> 100 µM (inactive),> 100 µM (inactive),> 100 µM (inactive),> 100 µM (inactive),> 100 µM (inactive),> 100 µM (inactive),> 100,> 100 µM (inactive),> 100 µM (inactive),> 100 µM (inactive),> 100 µM (inactive),> 100 µM (inactive),> 100 µM (inactive),> 100 µM (inactive),> 100 µM (inactive)
COC(=O)[C@H](Cc1c[nH]c2ccccc12)NC(=O)c1ccc(CNC(=O)/C=C/c2cccc(Oc3ccccc3)c2)cc1,> 100 µM (inactive),52.6 µM (inactive),> 100 µM (inactive),7.73 µM (inactive),91.6 µM (inactive),> 100 µM (inactive),> 100 µM (inactive),> 100 µM (inactive),> 100 µM (inactive),> 100 µM (inactive),81.7,> 100 µM (inactive),56.1 µM (inactive),> 100 µM (inactive),> 100 µM (inactive),> 100 µM (inactive),> 100 µM (inactive),> 100 µM (inactive),> 100 µM (inactive)
CN(C)C(=S)N/N=C\C=N/NC(=S)N(C)C,0.525 µM (active),1.63 µM (inactive),> 100 µM (inactive),0.277 µM (active),0.731 µM (active),31.8 µM (inactive),0.246 µM (active),2.53 µM (inactive),0.182 µM (active),0.329 µM (active),0.0843,0.515 µM (active),,0.479 µM (active),0.155 µM (active),0.286 µM (active),0.189 µM (active),0.175 µM (active),0.0614 µM (active)
CCOC(=O)c1nc2c3c(ncn2n1)Oc1c(c(-c2ccccc2)nn1-c1ccccc1)C3c1ccc(OC)c(OC)c1 (centres undefined),> 10 µM (inactive),> 100 µM (inactive),37.2 µM (inactive),23.4 µM (inactive),24.3 µM (inactive),> 100 µM (inactive),> 100 µM (inactive),> 100 µM (inactive),> 100 µM (inactive),> 100 µM (inactive),> 100,,> 100 µM (inactive),50.4 µM (inactive),> 100 µM (inactive),> 100 µM (inactive),57.7 µM (inactive),25.9 µM (inactive),31.3 µM (inactive)
COC(=O)c1c(OC(C)=O)ccc2c1c1cc3ccccc3c(OC(C)=O)c1n2C,34.6 µM (inactive),17.7 µM (inactive),30 µM (inactive),24.8 µM (inactive),68.5 µM (inactive),53.5 µM (inactive),21.8 µM (inactive),28.6 µM (inactive),30.1 µM (inactive),9.33 µM (inactive),22.7,37.2 µM (inactive),28.1 µM (inactive),41.3 µM (inactive),9.86 µM (inactive),40.6 µM (inactive),34.8 µM (inactive),14.2 µM (inactive),61 µM (inactive)
COc1ccc(CNc2nc(NCc3ccc(OC)cc3)nc(Nc3ccccc3)n2)cc1,3.37 µM (inactive),12.4 µM (inactive),24.1 µM (inactive),> 100 µM (inactive),17.8 µM (inactive),> 100 µM (inactive),4.82 µM (inactive),21.5 µM (inactive),5.69 µM (inactive),5.18 µM (inactive),3.39,64.4 µM (inactive),,> 100 µM (inactive),37.7 µM (inactive),46 µM (inactive),9.14 µM (inactive),20.3 µM (inactive),16.7 µM (inactive)
CCC/C=C/C=C/C(=O)OC1C(C)C2(O)C3C=C(C)C(=O)C3CC(COC(C)=O)=CC2C2C(C)(C)C12OC(=O)C(C)C (centres undefined),16.9 µM (inactive),12.8 µM (inactive),3.92 µM (inactive),17.5 µM (inactive),25.7 µM (inactive),26.1 µM (inactive),0.197 µM (active),13.5 µM (inactive),11.6 µM (inactive),17.2 µM (inactive),,15.8 µM (inactive),0.137 µM (active),19.4 µM (inactive),29.6 µM (inactive),11 µM (inactive),21.5 µM (inactive),22.8 µM (inactive),
C[C@@H]1C(O)CC[C@H](C)C12CC=CC2=O (some centres undefined),,> 100 µM (inactive),> 100 µM (inactive),> 100 µM (inactive),> 100 µM (inactive),> 100 µM (inactive),> 100 µM (inactive),> 100 µM (inactive),> 100 µM (inactive),> 100 µM (inactive),> 100,> 100 µM (inactive),,> 100 µM (inactive),> 100 µM (inactive),> 100 µM (inactive),> 100 µM (inactive),,> 100 µM (inactive)
COc1ccc(C(=O)/C=C/c2ccc(Oc3cc(C(=O)/C=C/c4ccc(O)cc4)c(O)cc3OC)cc2)c(O)c1 [RHUSCHALCONE I],2.65 µM (inactive),2.72 µM (inactive),3.63 µM (inactive),2.56 µM (inactive),8.3 µM (inactive),4.19 µM (inactive),4.34 µM (inactive),4.06 µM (inactive),4.84 µM (inactive),4.41 µM (inactive),2.43,,2.27 µM (inactive),4.01 µM (inactive),5.96 µM (inactive),3.74 µM (inactive),3.24 µM (inactive),3.45 µM (inactive),3.79 µM (inactive)
